Results taken from patent US12570666B2, “Furoindazole derivatives” (Bayer Aktiengesellschaft, priority 2019, dated 2026).

These compounds were tested against T1, human GPR84 receptor (Homo sapiens, UniProt Q9NQS5) (assay: cAMP HTRF assay for identification of cellular GPR84 antagonists). Conditions: CHO-K1 cells stably expressing human GPR84; Forskolin + agonist 6-OAU (EC80); average or median values.
T1 construct: frozen aliquots prepared by acCELLerate; host or cells: CHO-K1
Format: cell-based
From the text: cAMP HTRF® Assay for Identification of Cellular GPR84 Antagonists
By using a Homogenous Time-Resolved Fluorescence (HTRF®) based assay (#62AM5PEJ, Cisbio, Condolet, France) the inhibition of the Gi-coupled GPR84 receptor can be detected. CHO-K1 cells stably expressing human GPR84 receptor (purchased from DiscoveRx, now Eurofins) were used and treated with Forskolin (F6886, Sigma, Germany) to stimulate membrane adenylyl cyclases and thereby unspecific cAMP formation. Activation of the Gi-coupled GPR84 by a natural or small molecule agonist (e.g. 6-n-octyl aminouracile, inhouse) results in inhibition of cellular cAMP formation which can be released again by antagonists to this receptor. Detection and quantification of cellular cAMP levels in this HTRF assay is achieved by interaction between a fluorescent cAMP tracer (cAMP-d2) and an Eu-cryptate labelled anti-cAMP antibody. Following excitation at 337 nm this pairing allows for the generation of a fluorescence resonance energy transfer (FRET) between the partners and results in FRET induced emissions at 665 nm and 620 nm, the latter representing background signal by Eu-cryptate labelled anti-cAMP antibody. Maximal signal is obtained in the absence of any cellular cAMP (no competition for the binding of the tracer to the antibody). Given the combination of the Gi coupling properties of GPR84 and the competitive nature of the detection system agonist treatment should result in an increase in the HTRF signal due to lowered cAMP levels. Any signal decrease in the presence of Forskolin, agonist and compound is indicative of antagonist mediated abrogation of GPR84 signalling.
For the assay, frozen aliquots of CHO-K1 cells expressing hGPR84 (prepared by acCELLerate, Hamburg, Germany) were thawed and a cell suspension (1.67E+06 cells/mL) in assay media (Ham's F12 Nutrient Mix, Thermo Fisher Scientific, Waltham, USA; 5% fetal calf serum, Biomol, Hamburg, Germany) containing cAMP-d2 (dilution 1:20, supplied with the kit #62AM5PEJ, Cisbio, Condolet, France) was prepared. After recovery of cells for 20 minutes at 37° C., 3 μL/well cell suspension including cAMP-d2 were added to a pre-dispensed assay plate (Greiner Bio-One, Kremsmuenster, Austria) containing 50 nl/well test compound in 100% DMSO or 100% DMSO as control. This was followed by a 30 minutes incubation step at room temperature. […] The reaction was stopped by addition of 3 μL/well lysis buffer containing cAMP Eu-Cryptate antibody (dilution 1:20) (both supplied with the kit #62AM5PEJ, Cisbio, Condolet, France). To enable complete lysis, plates were incubated for 60 minutes at room temperature before measurement in an HTRF reader, e.g. a PHERAstar (BMG Labtech, Ortenberg, Germany).
From the fluorescence emissions at 665 nm (FRET) and at 620 nm (background signal of Eu-cryptate) the ratio (emission at 665 nm divided by emission at 620 nm×10000) was calculated and the data were normalized (reaction without test compound, only 100% DMSO=0% inhibition; all other assay components except agonist=100% inhibition). For dose response testing on the same microtiter plate, compounds were tested at 11 different concentrations in the range of 20 μM to 0.07 nM (20 μM, 5.7 μM, 1.6 μM, 0.47 μM, 0.13 μM, 38 nM, 11 nM, 3.1 nM, 0.89 nM, 0.25 and 0.07 nM; dilution series prepared before the assay at the level of the 100-fold conc. stock solutions by serial 1:3.5 dilutions in 100% DMSO) in duplicate values for each concentration. IC50 values were calculated by 4-parameter fitting using a commercial software package (Genedata Screener, Basel, Switzerland).
Examples were tested in selected biological assays one or more times. […]

T1 sequence (Q9NQS5 whole entry): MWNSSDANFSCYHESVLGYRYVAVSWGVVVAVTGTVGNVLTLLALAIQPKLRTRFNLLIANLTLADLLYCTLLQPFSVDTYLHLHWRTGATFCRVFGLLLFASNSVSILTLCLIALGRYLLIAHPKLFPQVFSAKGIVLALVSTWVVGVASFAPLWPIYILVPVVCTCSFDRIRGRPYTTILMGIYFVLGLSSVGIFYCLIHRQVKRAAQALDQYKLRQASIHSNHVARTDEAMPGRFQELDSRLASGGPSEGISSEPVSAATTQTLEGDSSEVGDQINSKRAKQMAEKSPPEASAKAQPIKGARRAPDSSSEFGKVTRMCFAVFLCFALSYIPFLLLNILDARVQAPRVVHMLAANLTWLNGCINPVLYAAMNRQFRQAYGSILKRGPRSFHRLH

Row | SMILES | IC50
1 | Cc1c(C(=O)NC[C@H]2COCCO2)oc2c1-c1nn(Cc3ccccn3)cc1CC2 [Example 19-2, N-{[(2S)-1,4-dioxan-2-yl]methyl}-8-methyl-2-[(pyridin-2-yl)methyl]-4,5-dihydro-2H-furo[2,3-g]indazole-7-carboxamide] | 830 nM
2 | CC(=O)N1CCC(Cn2cc3c(n2)-c2c(oc(C(=O)NC[C@@H]4CCCO4)c2C(F)(F)F)C[C@H]3C)CC1 (single isomer, unassigned) [Example 292, (4R or 4S)-2-[(1-acetylpiperidin-4-yl)methyl]-4-methyl-N-{[(2S)-oxolan-2-yl]methyl}-8-(trifluoromethyl)-4,5-dihydro-2H-furo[2,3-g]indazole-7-carboxamide] | 6 nM
3 | Cc1nonc1CNC(=O)c1oc2c(c1C)-c1nn(Cc3ccccn3)cc1CC2 [Example 15, 8-methyl-N-[(4-methyl-1,2,5-oxadiazol-3-yl)methyl]-2-(pyridin-2-ylmethyl)-4,5-dihydro-2H-furo[2,3-g]indazole-7-carboxamide] | 2000 nM
4 | O=C(NCc1ncco1)c1oc2c(c1C(F)(F)F)-c1nn(C[C@H]3COCCO3)cc1C1(CCC1)C2 [Example 272, 2′-{[(2S)-1,4-dioxan-2-yl]methyl}-N-[(1,3-oxazol-2-yl)methyl]-8′-(trifluoromethyl)-2′,51-dihydrospiro[cyclobutane-1,4′-furo[2,3-g]indazole]-7′-carboxamide] | 42 nM
5 | Cc1c(C(=O)NC[C@@H]2CCOC2)oc2c1-c1nn(Cc3ccccn3)cc1CC2 [Example 33-1, 8-methyl-2-(pyridin-2-ylmethyl)-N-[(3S)-tetrahydrofuran-3-ylmethyl]-4,5-dihydro-2H-furo[2,3-g]indazole-7-carboxamide] | 1890 nM
6 | Cc1c(C(=O)NCC2CCOCC2)oc2c1-c1nn(Cc3ccccn3)cc1CC2 [Example 171] | 3690 nM
7 | Cc1c(C(=O)NCCN2CCN(C)CC2)oc2c1-c1nn(Cc3ccccn3)cc1CC2 [Example 4, 8-methyl-N-[2-(4-methylpiperazin-1-yl)ethyl]-2-(pyridin-2-ylmethyl)-4,5-dihydro-2H-furo[2,3-g]indazole-7-carboxamide] | 1620 nM
8 | Cc1c(C(=O)NC[C@@H]2CCCO2)oc2c1-c1nn(CC3CNC3)cc1CC2 [Example 158, 2-(azetidin-3-ylmethyl)-8-methyl-N-[(2S)-tetrahydrofuran-2-ylmethyl]-4,5-dihydro-2H-furo[2,3-g]indazole-7-carboxamide] | 1550 nM
9 | Cc1ccc(Cn2cc3c(n2)-c2c(oc(C(=O)NC[C@@H]4COCCO4)c2C)CC32CC2)cn1 [Example 210] | 16 nM
10 | Cc1c(C(=O)NC[C@@H]2CCCO2)oc2c1-c1nn(C[C@@H]3CCO3)cc1CC2 [Example 99, 8-methyl-2-[(2S)-oxetan-2-ylmethyl]-N-[(2S)-tetrahydrofuran-2-ylmethyl]-4,5-dihydro-2H-furo[2,3-g]indazole-7-carboxamide] | 210 nM
11 | CCc1ccc(Cn2cc3c(n2)-c2c(oc(C(=O)NC[C@@H]4CCCO4)c2C)CC3)cn1 [Example 186] | 63 nM
12 | O=C(NC[C@@H]1COCCO1)c1oc2c(c1C(F)(F)F)-c1nn(C[C@H]3COCCO3)cc1CC2 [Example 320, N-{[(2R)-1,4-dioxan-2-yl]methyl}-2-{[(2S)-1,4-dioxan-2-yl]methyl}-8-(trifluoromethyl)-4,5-dihydro-2H-furo[2,3-g]indazole-7-carboxamide] | 12 nM
13 | CCN1CCC(Cn2cc3c(n2)-c2c(oc(C(=O)NC[C@@H]4COCCO4)c2C(F)(F)F)CC3)CC1 [Example 312, N-{[(2R)-1,4-dioxan-2-yl]methyl}-2-[(1-ethylpiperidin-4-yl)methyl]-8-(trifluoromethyl)-4,5-dihydro-2H-furo[2,3-g]indazole-7-carboxamide] | 760 nM
14 | Cc1cnc(CNC(=O)c2oc3c(c2C(F)(F)F)-c2nn(C[C@H]4COCCO4)cc2[C@H](C)C3)nc1 (single isomer, unassigned) [Example 303, (4R or 4S)-2-{[(2S)-1,4-dioxan-2-yl]methyl}-4-methyl-N-[(5-methylpyrimidin-2-yl)methyl]-8-(trifluoromethyl)-4,5-dihydro-2H-furo[2,3-g]indazole-7-carboxamide] | 6 nM
15 | Cc1c(C(=O)Nc2ccn(C)n2)oc2c1-c1nn(Cc3ccccn3)cc1CC2 [Example 40, 8-methyl-N-(1-methyl-1H-pyrazol-3-yl)-2-(pyridin-2-ylmethyl)-4,5-dihydro-2H-furo[2,3-g]indazole-7-carboxamide] | 670 nM
16 | Cc1cccc(Cn2cc3c(n2)-c2c(oc(C(=O)NCCN4CCC4)c2C)CC3)n1 [Example 67, N-[2-(azetidin-1-yl)ethyl]-8-methyl-2-[(6-methylpyridin-2-yl)methyl]-4,5-dihydro-2H-furo[2,3-g]indazole-7-carboxamide] | 1810 nM
17 | Cc1cccnc1Cn1cc2c(n1)-c1c(oc(C(=O)NC[C@@H]3COCCO3)c1C)CC2 [Example 63, N-[(2R)-1,4-dioxan-2-ylmethyl]-8-methyl-2-[(3-methylpyridin-2-yl)methyl]-4,5-dihydro-2H-furo[2,3-g]indazole-7-carboxamide] | 60 nM
18 | Cc1c(C(=O)NCC2CCC3(COC3)O2)oc2c1-c1nn(C[C@H]3COCCO3)cc1C1(CC1)C2 (mixture of isomers) [Example 201] | 80 nM
19 | Cc1c(C(=O)NCc2nccs2)oc2c1-c1nn(Cc3ccccn3)cc1CC2 [Example 23, 8-methyl-2-(pyridin-2ylmethyl)-N-(1,3-thiazol-2-ylmethyl)-4,5-dihydro-2H-furo[2,3-g]indazole-7-carboxamide] | 160 nM
20 | Cc1c(C(=O)NC[C@@H]2CCCO2)oc2c1-c1nn(C(C)c3ccccn3)cc1CC2 (mixture of isomers) [Example 317, 8-methyl-N-{[(2S)-oxolan-2-yl]methyl}-2-[(1±)-1-(pyridin-2-yl)ethyl]-4,5-dihydro-2H-furo[2,3-g]indazole-7-carboxamide] | 578 nM
21 | Cc1c(C(=O)NC[C@@H]2COCCO2)oc2c1-c1nn(C[C@H]3COCCO3)cc1C1(CCC1)C2 [Example 145] | 110 nM
22 | Cc1cccc(Cn2cc3c(n2)-c2c(oc(C(=O)NCc4cc(C5CC5)on4)c2C)CC3)n1 [Example 68, N-[(5-cyclopropyl-1,2-oxazol-3-yl)methyl]-8-methyl-2-[(6-methylpyridin-2-yl)methyl]-4,5-dihydro-2H-furo[2,3-g]indazole-7-carboxamide] | 170 nM
23 | Cc1c(C(=O)NCC2CCC(C)(C)O2)oc2c1-c1nn(Cc3ccccn3)cc1CC2 (racemic) [Example 170] | 30 nM
24 | Cc1cccnc1Cn1cc2c(n1)-c1c(oc(C(=O)NC[C@@H]3CCCO3)c1C)CC2 [Example 62, 8-methyl-2-[(3-methylpyridin-2-yl)methyl]-N-[(2S)-tetrahydrofuran-2-ylmethyl]-4,5-dihydro-2H-furo[2,3-g]indazole-7-carboxamide] | 110 nM
25 | O=C(NC[C@@H]1CCCO1)c1oc2c(c1C(F)(F)F)-c1nn(Cc3ccccn3)cc1C1(CCC1)C2 [Example 274, 2′-(Pyridin-2-ylmethyl)-N-[(2S)-tetrahydrofuran-2-ylmethyl]-8′-(trifluormethyl)-2′,5′-dihydrospiro[cyclobutan-1,4′-furo[2,3-g]indazol]-7′-carboxamide] | 10 nM
26 | Cc1c(C(=O)NC[C@@H]2CCCO2)oc2c1-c1nn(CC3CC3)cc1C1(CC1)C2 [Example 129, 2′-(cyclopropylmethyl)-8′-methyl-N-[(2S)-tetrahydrofuran-2-ylmethyl]-2′,5′-dihydrospiro[cyclopropane-1,4′-furo[2,3-g]indazole]-7′-carboxamide] | 55 nM
